Source: PubChem BioAssay AID2060487 (Molecular Pharmacology Branch, DTP, NCI, 2025)

Test system: 997537-175-T-J1-PDC complex spheroid viability
Experiment: Anticancer human tumor 997537-175-T-J1-PDC patient-derived colon adenocarcinoma cell line growth inhibition [GQUAD]
Details: for IC50: curve of first compound; for viability, T/C: stronger effect = lower value; active = viability on the fitted dose curve at most 10% of control; inactive = the rest
How it was run: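 Multi-cell-type spheroids of tumor cells with HUVEC and mesenchymal stem cells, treated with drug combinations. Concentrations descend in half-log steps from near clinical Cmax, or from 10 microM where Cmax is unknown; viability read-out.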

[1] = second compound 0.0316 µM, first compound 0.0316 µM
[2] = second compound 0.0316 µM, first compound 0.1 µM
[3] = second compound 0.0316 µM, first compound 0.316 µM
[4] = second compound 0.0316 µM, first compound 1 µM
[5] = second compound 0.0316 µM, first compound 3.16 µM
[6] = second compound 0.0316 µM, first compound 10 µM
[7] = second compound 0.1 µM, first compound 0.0316 µM
[8] = second compound 0.1 µM, first compound 0.1 µM
[9] = second compound 0.1 µM, first compound 0.316 µM
[10] = second compound 0.1 µM, first compound 1 µM
[11] = second compound 0.1 µM, first compound 3.16 µM
[12] = second compound 0.1 µM, first compound 10 µM
[13] = second compound 0.316 µM, first compound 0.0316 µM
[14] = second compound 0.316 µM, first compound 0.1 µM
[15] = second compound 0.316 µM, first compound 0.316 µM
[16] = second compound 0.316 µM, first compound 1 µM
[17] = second compound 0.316 µM, first compound 3.16 µM
[18] = second compound 0.316 µM, first compound 10 µM
[19] = second compound 1 µM, first compound 0.0316 µM
[20] = second compound 1 µM, first compound 0.1 µM
[21] = second compound 1 µM, first compound 0.316 µM
[22] = second compound 1 µM, first compound 1 µM
[23] = second compound 1 µM, first compound 3.16 µM
[24] = second compound 1 µM, first compound 10 µM
[25] = second compound 3.16 µM, first compound 0.0316 µM
[26] = second compound 3.16 µM, first compound 0.1 µM
[27] = second compound 3.16 µM, first compound 0.316 µM
[28] = second compound 3.16 µM, first compound 1 µM
[29] = second compound 3.16 µM, first compound 3.16 µM
[30] = second compound 3.16 µM, first compound 10 µM
[31] = second compound 10 µM, first compound 0.0316 µM
[32] = second compound 10 µM, first compound 0.1 µM
[33] = second compound 10 µM, first compound 0.316 µM
[34] = second compound 10 µM, first compound 1 µM
[35] = second compound 10 µM, first compound 3.16 µM
[36] = second compound 10 µM, first compound 10 µM
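Note: spheroids exposed to the agents for 7 days.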
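Throughout, for viability, T/C: 100% = DMSO vehicle control viability.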

COc1ccc([C@@H](O)c2cc(-c3ncnc4cc(N5CCOCC5)ccc34)c(F)cc2Cl)nn1 + Cc1[nH]c2ccc(F)cc2c1-c1nc2c3cccnc3c3ncccc3c2[nH]1
7.63 µM: IC50 (second compound 1 µM)
inactive: viability, T/C [1] 90% | viability, T/C [2] 98.5% | viability, T/C [3] 93.9% | viability, T/C [4] 80.4% | viability, T/C [5] 80.5% | viability, T/C [6] 60% | viability, T/C [7] 110% | viability, T/C [8] 86.2% | viability, T/C [9] 92.3% | viability, T/C [10] 60.7% | viability, T/C [11] 106% | viability, T/C [12] 48.8% | viability, T/C [13] 86.8% | viability, T/C [14] 98.9% | viability, T/C [15] 100% | viability, T/C [16] 81% | viability, T/C [17] 98.9% | viability, T/C [18] 67.8% | viability, T/C [19] 74.3% | viability, T/C [20] 81.4% | viability, T/C [21] 95.4% | viability, T/C [22] 72% | viability, T/C [23] 86.6% | viability, T/C [24] 40.1% | viability, T/C [25] 72.4% | viability, T/C [26] 71.9% | viability, T/C [27] 51.2% | viability, T/C [28] 92.2% | viability, T/C [29] 95.9% | viability, T/C [30] 54.7% | viability, T/C [31] 66% | viability, T/C [32] 88.5% | viability, T/C [33] 73.1% | viability, T/C [34] 73.1% | viability, T/C [35] 80.4% | viability, T/C [36] 45.7%
8.49 µM: IC50 (second compound 10 µM)
> 10 µM: IC50 (second compound 0.0316 µM) | IC50 (second compound 0.1 µM) | IC50 (second compound 0.316 µM) | IC50 (second compound 3.16 µM)

O=c1[nH]cc(F)c(=O)[nH]1 + Cc1[nH]c2ccc(F)cc2c1-c1nc2c3cccnc3c3ncccc3c2[nH]1
> 10 µM: IC50 (second compound 0.0316 µM) | IC50 (second compound 0.1 µM) | IC50 (second compound 0.316 µM) | IC50 (second compound 1 µM) | IC50 (second compound 3.16 µM) | IC50 (second compound 10 µM)
inactive: viability, T/C [1] 95.6% | viability, T/C [2] 88.1% | viability, T/C [3] 109% | viability, T/C [4] 91.7% | viability, T/C [5] 80.3% | viability, T/C [6] 89.5% | viability, T/C [7] 87.4% | viability, T/C [8] 87.7% | viability, T/C [9] 84.6% | viability, T/C [10] 83.5% | viability, T/C [11] 98.3% | viability, T/C [12] 101% | viability, T/C [13] 94.2% | viability, T/C [14] 76.8% | viability, T/C [15] 78.5% | viability, T/C [16] 107% | viability, T/C [17] 114% | viability, T/C [18] 109% | viability, T/C [19] 79.2% | viability, T/C [20] 94% | viability, T/C [21] 85.4% | viability, T/C [22] 87.2% | viability, T/C [23] 108% | viability, T/C [24] 86.7% | viability, T/C [25] 87.2% | viability, T/C [26] 83% | viability, T/C [27] 94.1% | viability, T/C [28] 95.8% | viability, T/C [29] 94% | viability, T/C [30] 76.1% | viability, T/C [31] 70.2% | viability, T/C [32] 76.2% | viability, T/C [33] 88.6% | viability, T/C [34] 57% | viability, T/C [35] 61.4% | viability, T/C [36] 61.4%

O=C(NO)c1cnc(N2CCN(S(=O)(=O)c3ccc4ccccc4c3)CC2)nc1 + Cc1[nH]c2ccc(F)cc2c1-c1nc2c3cccnc3c3ncccc3c2[nH]1
0.0878 µM: IC50 (second compound 1 µM)
0.134 µM: IC50 (second compound 0.1 µM)
inactive: viability, T/C [1] 93.7% | viability, T/C [2] 45.1% | viability, T/C [3] 19.4% | viability, T/C [4] 35.4% | viability, T/C [5] 39.2% | viability, T/C [6] 21.7% | viability, T/C [7] 73.6% | viability, T/C [8] 56.2% | viability, T/C [9] 31.2% | viability, T/C [10] 32.7% | viability, T/C [11] 20.9% | viability, T/C [12] 42.4% | viability, T/C [13] 78.8% | viability, T/C [14] 43.4% | viability, T/C [15] 52.3% | viability, T/C [16] 31.8% | viability, T/C [17] 42.2% | viability, T/C [18] 34.8% | viability, T/C [19] 74.4% | viability, T/C [20] 44.5% | viability, T/C [21] 37.6% | viability, T/C [22] 29.4% | viability, T/C [23] 23.6% | viability, T/C [24] 26.2% | viability, T/C [25] 55.9% | viability, T/C [26] 33.5% | viability, T/C [27] 30.5% | viability, T/C [28] 24.8% | viability, T/C [29] 25.6% | viability, T/C [30] 19.4% | viability, T/C [31] 45.1% | viability, T/C [32] 16.1% | viability, T/C [33] 10.4% | viability, T/C [34] 19.8% | viability, T/C [35] 16.6% | viability, T/C [36] 18%
0.043 µM: IC50 (second compound 3.16 µM)
0.0892 µM: IC50 (second compound 0.0316 µM)
< 0.0316 µM: IC50 (second compound 10 µM)
0.0915 µM: IC50 (second compound 0.316 µM)
